The test concerns the target T1, CDK4/cyclin D3 (Homo sapiens, UniProt P11802).
T1 construct: made in house; host or cells: insect cells (baculovirus co-infection)
In words: Inhibition of CDK4/Cyclin D retinoblastoma kinase activity.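 As to % Inhib CDK4/D @ 1 μM: relative to DMSO control wells without compound minus no-enzyme background.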 Type of test: biochemical. Particulars: for inhibition at 0.1 µM / % Inhib CDK4/D @ 0.1 μM: test compound at 0.1 μM; for inhibition at 0.1 µM: read-out: % Inhib CDK4/D @ 0.1 μM; for inhibition at 1 µM / % Inhib CDK4/D @ 1 μM: test compound at 1 μM (head line shifted: 'mM' printed beside 'Structure'); for inhibition at 1 µM: read-out: % Inhib CDK4/D @ 1 μM; for inhibition at 0.03 µM / % Inhib CDK4/D @ 0.03: test compound at 0.03 (unit cell empty, head line shifted; μM); for inhibition at 0.03 µM: read-out: % Inhib CDK4/D @ 0.03. The method in brief: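 Human CDK4 with truncated cyclin D3 (1-264) from baculovirus-infected insect cells, 5 nM, phosphorylating His-tagged Rb fragment (386-928) with 25 μM [32P/33P]ATP in pH 7.4 HEPES/MgCl2, 2% DMSO, 30° C., 20 min (60 min for tight binders). Filter capture, phosphorimager; apparent Ki from competitive or tight-binding competitive fits.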

T1 sequence (P11802 whole entry): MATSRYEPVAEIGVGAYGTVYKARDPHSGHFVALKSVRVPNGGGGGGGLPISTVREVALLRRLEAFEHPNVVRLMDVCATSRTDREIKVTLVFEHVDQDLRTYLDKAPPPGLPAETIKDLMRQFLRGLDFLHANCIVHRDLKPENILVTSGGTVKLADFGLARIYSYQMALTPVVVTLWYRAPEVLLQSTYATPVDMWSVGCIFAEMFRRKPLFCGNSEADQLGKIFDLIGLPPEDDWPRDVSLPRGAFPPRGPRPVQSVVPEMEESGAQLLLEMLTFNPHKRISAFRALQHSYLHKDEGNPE
T1 sequence (P30281 1-264 partner limits assumed): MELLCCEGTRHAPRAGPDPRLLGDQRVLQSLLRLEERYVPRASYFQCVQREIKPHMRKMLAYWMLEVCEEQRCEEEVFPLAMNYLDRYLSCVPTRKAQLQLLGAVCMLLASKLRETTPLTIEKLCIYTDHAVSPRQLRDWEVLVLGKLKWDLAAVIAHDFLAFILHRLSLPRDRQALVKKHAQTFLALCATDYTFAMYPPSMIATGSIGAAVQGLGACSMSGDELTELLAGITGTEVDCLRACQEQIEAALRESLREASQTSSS

In the case of `NC(=O)C[S+]([O-])c1cccc(Nc2nc(N)c(C(=O)c3c(Cl)cccc3Cl)s2)c1` (stereo not drawn) [DD(141)], the inhibition at 0.1 µM is 71%, the inhibition at 1 µM was found to be 64.5% and the inhibition at 0.03 µM amounted to 36%.
Take `COCCSc1ccc(Nc2nc(N)c(C(=O)c3c(Cl)cccc3Cl)s2)cc1` [DD(14)]: the inhibition at 0.1 µM turned out to be 41%, the inhibition at 1 µM worked out at 80% and the inhibition at 0.03 µM was 18%.
Take `C=CCCS(=O)(=O)c1ccc(Nc2nc(N)c(C(=O)c3c(Cl)cccc3Cl)s2)cc1` [DD(166)]: the inhibition at 0.1 µM came out at 14%, the “% Inhib CDK4/D @ 1 μM” value was 14.5% and the “% Inhib CDK4/D @ 0.03” value was 3.5%.
In the case of `Nc1nc(Nc2cccc(SCCN3CCOCC3)c2)sc1C(=O)c1c(Cl)cccc1Cl` [DD(79)], the inhibition at 0.1 µM came to 4.3%, the inhibition at 1 µM stood at 62.3% and the inhibition at 0.03 µM is 9.1%.
With `Nc1nc(Nc2ccc([S+]([O-])Cc3ccncc3)cc2)sc1C(=O)c1c(Cl)cccc1Cl` (stereo not drawn) [DD(115)], the inhibition at 0.1 µM stood at 45%, the inhibition at 1 µM was found to be 68.5% and the inhibition at 0.03 µM was 6.3%.
As to `CCOCCSc1ccc(Nc2nc(N)c(C(=O)c3c(Cl)cccc3Cl)s2)cc1` [DD(33)], the inhibition at 0.1 µM was determined as 21%, the inhibition at 1 µM came to 64.7% and the inhibition at 0.03 µM is 8.1%.
Turning to `CC(C)OC(=O)C[S+]([O-])c1ccc(Nc2nc(N)c(C(=O)c3c(Cl)cccc3Cl)s2)cc1` (stereo not drawn) [DD(103)], the inhibition at 0.1 µM worked out at 38%, the inhibition at 1 µM came to 47.5% and the inhibition at 0.03 µM was -2.9%.
Take `Nc1nc(Nc2ccc(S(=O)(=O)CCN3CCCCC3)cc2)sc1C(=O)c1c(Cl)cccc1Cl` [DD(171)]: the inhibition at 0.1 µM is 21%, the “% Inhib CDK4/D @ 1 μM” value is 17.1% and the “% Inhib CDK4/D @ 0.03” value is −29%.
On to `CC(C)(CO)CS(=O)(=O)c1ccc(Nc2nc(N)c(C(=O)c3c(Cl)cccc3Cl)s2)cc1` [DD(200)], for which the inhibition at 0.1 µM came out at 22%, the “% Inhib CDK4/D @ 1 μM” value worked out at 22.4% and the “% Inhib CDK4/D @ 0.03” value is recorded as −13%.
For the compound `CC(=O)OCCS(=O)(=O)c1ccc(Nc2nc(N)c(C(=O)c3c(Cl)cccc3Cl)s2)cc1` [DD(237)], the “% Inhib CDK4/D @ 0.1 μM” value turned out to be 22%, the “% Inhib CDK4/D @ 1 μM” value was 7.3% and the “% Inhib CDK4/D @ 0.03” value was −1.7%.
Consider `Nc1nc(Nc2ccc(SCC3CNC(=O)O3)cc2)sc1C(=O)c1c(Cl)cccc1Cl` (stereo not drawn) [DD(9)], for which the inhibition at 0.1 µM is -14%, the inhibition at 1 µM is 40.3% and the inhibition at 0.03 µM is -28%.
As to `COC(=O)/C=C/CS(=O)(=O)c1ccc(Nc2nc(N)c(C(=O)c3c(Cl)cccc3Cl)s2)cc1` [DD(164)], the “% Inhib CDK4/D @ 0.1 μM” value turned out to be 8.6%, the “% Inhib CDK4/D @ 1 μM” value is −6.9% and the “% Inhib CDK4/D @ 0.03” value is recorded as −7.4%.
With `CC(C)CCOC(=O)C[S+]([O-])c1cccc(Nc2nc(N)c(C(=O)c3c(Cl)cccc3Cl)s2)c1` (stereo not drawn) [DD(151)], the inhibition at 0.1 µM amounted to 9.2%, the inhibition at 1 µM worked out at 34.3% and the inhibition at 0.03 µM is 16%.
On the same counts, the results for `CC(C)CCOC(=O)CSc1cccc(Nc2nc(N)c(C(=O)c3c(Cl)cccc3Cl)s2)c1` [DD(71)] are 6.9%, 36% and 77%.
On to `CC1(CS(=O)(=O)c2ccc(Nc3nc(N)c(C(=O)c4c(Cl)cccc4Cl)s3)cc2)CO1` (stereo not drawn) [DD(180)], for which the “% Inhib CDK4/D @ 0.1 μM” value is 13%, the “% Inhib CDK4/D @ 1 μM” value came to 4.2% and the “% Inhib CDK4/D @ 0.03” value is listed as −14%.
Take `CC(C)(CO)CSc1cccc(Nc2nc(N)c(C(=O)c3c(Cl)cccc3Cl)s2)c1` [DD(80)]: the inhibition at 0.1 µM is 1.5%, the inhibition at 1 µM is 56% and the inhibition at 0.03 µM worked out at 1.2%.
As to `CCN(CC)C(=O)C[S+]([O-])c1cccc(Nc2nc(N)c(C(=O)c3c(Cl)cccc3Cl)s2)c1` (stereo not drawn) [DD(121)], the inhibition at 0.1 µM is 41%, the inhibition at 1 µM is 59.8% and the inhibition at 0.03 µM was -0.5%.
Regarding `Nc1nc(Nc2ccc(S(=O)(=O)CCO)cc2)sc1C(=O)c1c(Cl)cccc1Cl` [DD(189)], the inhibition at 0.1 µM came to 31%, the “% Inhib CDK4/D @ 1 μM” value was 32.2% and the “% Inhib CDK4/D @ 0.03” value is −19%.
For `Nc1nc(Nc2ccc([S+]([O-])CCO)cc2)sc1C(=O)c1c(Cl)cccc1Cl` (stereo not drawn) [DD(110)], the “% Inhib CDK4/D @ 0.1 μM” value is reported as 27%, the “% Inhib CDK4/D @ 1 μM” value worked out at 28.9% and the “% Inhib CDK4/D @ 0.03” value is on record as 3.7%.
Consider `Nc1nc(Nc2ccc([S+]([O-])CC3CO3)cc2)sc1C(=O)c1c(Cl)cccc1Cl` (stereo not drawn) [DD(92)], for which the inhibition at 0.1 µM is 26%, the inhibition at 1 µM was determined as 65.8% and the inhibition at 0.03 µM is -4.6%.
Consider `Nc1nc(Nc2ccc(SCCCO)cc2)sc1C(=O)c1c(Cl)cccc1Cl` [DD(5)], for which the inhibition at 0.1 µM was determined as 40%, the inhibition at 1 µM amounted to 85.2% and the inhibition at 0.03 µM is 21%.
On the same counts, the results for `CN1CCCC1CCSc1ccc(Nc2nc(N)c(C(=O)c3c(Cl)cccc3Cl)s2)cc1` (stereo not drawn) [DD(19)] are 19%, 82.9% and -3%.
For `CC(C)CCOC(=O)CS(=O)(=O)c1ccc(Nc2nc(N)c(C(=O)c3c(Cl)cccc3Cl)s2)cc1` [DD(192)], the “% Inhib CDK4/D @ 0.1 μM” value is recorded as 11%, the “% Inhib CDK4/D @ 1 μM” value was −29% and the “% Inhib CDK4/D @ 0.03” value was 5.6%.
Take `Nc1nc(Nc2cccc([S+]([O-])CCN3CCCCC3)c2)sc1C(=O)c1c(Cl)cccc1Cl` (stereo not drawn) [DD(131)]: the inhibition at 0.1 µM worked out at 32%, the inhibition at 1 µM was 57% and the inhibition at 0.03 µM turned out to be 13%.
With `CCC(CC)CSc1ccc(Nc2nc(N)c(C(=O)c3c(Cl)cccc3Cl)s2)cc1` [DD(36)], the inhibition at 0.1 µM was 18%, the inhibition at 1 µM came out at 49.6% and the inhibition at 0.03 µM is 9%.
The like results for `CC(C)OC(=O)CCS(=O)(=O)c1ccc(N(C)c2nc(N)c(C(=O)c3c(Cl)cccc3Cl)s2)cc1` [DD(238)] were, in that order, 22%, 21.5% and -19%.
As for `Nc1nc(Nc2cccc([S+]([O-])CC3CCCO3)c2)sc1C(=O)c1c(Cl)cccc1Cl` (stereo not drawn) [DD(138)], the inhibition at 0.1 µM is 34%, the inhibition at 1 µM is 63.8% and the inhibition at 0.03 µM worked out at 2.9%.
On the same counts, the results for `CC(C)CC[S+]([O-])c1cccc(Nc2nc(N)c(C(=O)c3c(Cl)cccc3Cl)s2)c1` (stereo not drawn) [DD(133)] are 28%, 24.3% and 14%.
Consider `NC(=O)C[S+]([O-])c1ccc(Nc2nc(N)c(C(=O)c3c(Cl)cccc3Cl)s2)cc1` (stereo not drawn) [DD(101)], for which the inhibition at 0.1 µM is 78%, the inhibition at 1 µM is 80.4% and the inhibition at 0.03 µM came out at 38%.
With `CN(C)CCCS(=O)(=O)c1ccc(N(C)c2nc(N)c(C(=O)c3c(Cl)cccc3Cl)s2)cc1` [DD(210)], the inhibition at 0.1 µM came to 21%, the inhibition at 1 µM is -37% and the inhibition at 0.03 µM was -22%.
Regarding `Nc1nc(Nc2cccc([S+]([O-])CC(=O)Nc3ccccc3)c2)sc1C(=O)c1c(Cl)cccc1Cl` (stereo not drawn) [DD(135)], the inhibition at 0.1 µM is 42%, the inhibition at 1 µM is 51.9% and the inhibition at 0.03 µM is 16%.
Regarding `Nc1nc(Nc2ccc(S(=O)(=O)CC3CC3)cc2)sc1C(=O)c1c(Cl)cccc1Cl` [DD(176)], the inhibition at 0.1 µM came out at 13%, the “% Inhib CDK4/D @ 1 μM” value came to 5.4% and the inhibition at 0.03 µM came out at 17%.
Consider `COC(=O)/C=C/C[S+]([O-])c1cccc(Nc2nc(N)c(C(=O)c3c(Cl)cccc3Cl)s2)c1` (stereo not drawn) [DD(124)], for which the inhibition at 0.1 µM worked out at 34%, the inhibition at 1 µM amounted to 38.8% and the inhibition at 0.03 µM turned out to be 2.1%.
On the same counts, the results for `CC(C)OC(=O)C[S+]([O-])c1cccc(Nc2nc(N)c(C(=O)c3c(Cl)cccc3Cl)s2)c1` (stereo not drawn) [DD(143)] are 24%, 36.7% and 15%.
Consider `CC(C)CC[S+]([O-])c1ccc(Nc2nc(N)c(C(=O)c3c(Cl)cccc3Cl)s2)cc1` (stereo not drawn) [DD(93)], for which the inhibition at 0.1 µM was 35%, the inhibition at 1 µM turned out to be 43% and the inhibition at 0.03 µM is -4.4%.
The like results for `CN1CCCC(CSc2ccc(Nc3nc(N)c(C(=O)c4c(Cl)cccc4Cl)s3)cc2)C1` (stereo not drawn) [DD(27)] were, in that order, 10%, 58.7% and -2.6%.
In the case of `CC(C)CCOC(=O)CS(=O)(=O)c1ccc(Nc2nc(N)c(C(=O)c3c(Cl)cccc3Cl)s2)cc1` [DD(191)], the “% Inhib CDK4/D @ 0.1 μM” value was 31%, the “% Inhib CDK4/D @ 1 μM” value was 9.3% and the “% Inhib CDK4/D @ 0.03” value is reported as −24%.
For `CCN(CC)C(=O)CSc1cccc(Nc2nc(N)c(C(=O)c3c(Cl)cccc3Cl)s2)c1` [DD(41)], the inhibition at 0.1 µM is 33%, the inhibition at 1 µM is 70.3% and the inhibition at 0.03 µM was found to be 28%.
Consider `Nc1nc(Nc2ccc([S+]([O-])CC3CNC(=O)O3)cc2)sc1C(=O)c1c(Cl)cccc1Cl` (stereo not drawn) [DD(89)], for which the inhibition at 0.1 µM was 35%, the inhibition at 1 µM amounted to 61.7% and the inhibition at 0.03 µM was -29%.
Turning to `CN(C)CCS(=O)(=O)c1ccc(Nc2nc(N)c(C(=O)c3c(Cl)cccc3Cl)s2)cc1` [DD(232)], the inhibition at 0.1 µM was 26%, the inhibition at 1 µM was 17.6% and the inhibition at 0.03 µM turned out to be 3.7%.

The values are drawn from patent publication US20040176431A1, “Antiproliferative 2-(sulfo-phenyl)-aminothiazole derivatives and pharmaceutical compositions, and methods for their use” (Pfizer, Inc., priority 2003, published 2004).
